# Measured values as given in US12577257B2, “Heterocyclic compounds” (Hoffmann-La Roche Inc., priority 2018, dated 2026).
# Biological target: T1, MAGL (Homo sapiens, UniProt Q99685)
# T1 sequence (Q99685 1-303): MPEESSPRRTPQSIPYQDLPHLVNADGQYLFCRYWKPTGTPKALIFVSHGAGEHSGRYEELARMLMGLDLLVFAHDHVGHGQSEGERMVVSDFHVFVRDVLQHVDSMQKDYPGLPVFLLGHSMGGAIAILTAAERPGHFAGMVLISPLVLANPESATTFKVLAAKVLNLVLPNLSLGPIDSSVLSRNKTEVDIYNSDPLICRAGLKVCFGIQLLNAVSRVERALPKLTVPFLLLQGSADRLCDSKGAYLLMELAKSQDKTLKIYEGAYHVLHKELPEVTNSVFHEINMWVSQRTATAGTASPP
# Assay: 2-AG assay: MAGL hydrolysis of 2-arachidonoylglycerol to arachidonic acid, followed by mass spectrometry
# Assay type: biochemical
# Details: footnote [a]: measured in 2-AG assay
# Method: Alternatively, compounds were profiled for MAGL inhibitory activity by determining the enzymatic activity by following the hydrolysis of the natural substrate 2-arachidonoylglycerol resulting in arachidonic acid, which can be followed by mass spectrometry. This assay is hereinafter abbreviated “2-AG assay”.
# The 2-AG assay was carried out in 384 well assay plates (PP, Greiner Cat #784201) in a total volume of 20 μL. Compound dilutions were made in 100% DMSO (VWR Chemicals 23500.297) in a polypropylene plate in 3-fold dilution steps to give a final concentration range in the assay from 12.5 μM to […]. 0.25 μL compound dilutions (100% DMSO) were added to 9 μL MAGL in assay buffer (50 mM TRIS (GIBCO, 15567-027), 1 mM EDTA (Fluka, 03690-100 ml), 0.01% (v/v) Tween. After shaking, the plate was incubated for 15 min at RT. To start the reaction, 10 μL 2-arachidonoylglycerol in assay buffer was added. The final concentrations in the assay was […] and 8 μM 2-arachidonoylglycerol. After shaking and 30 min incubation at RT, the reaction was quenched by the addition of 40 μL of acetonitrile containing 4 μM of d8-arachidonic acid. The amount of arachidonic acid was traced by an online SPE system (Agilent Rapidfire) coupled to a triple quadrupole mass spectrometer (Agilent 6460). A C18 SPE cartridge (G9205A) was used in an acetonitrile/water liquid setup. The mass spectrometer was operated in negative electrospray mode following the mass transitions 303.1→259.1 for arachidonic acid and 311.1→267.0 for d8-arachidonic acid. The activity of the compounds was calculated based on the ratio of intensities [arachidonic acid/d8-arachidonic acid].
row,SMILES,IC50
1,"O=C1CO[C@H]2CCN(C(=O)N3CC4(CC(OCc5ccc(C(F)(F)F)cc5F)C4)C3)C[C@H]2N1 [Example 28, (4aR,8aS)-6-(6-((2-Fluoro-4-(trifluoromethyl)benzyl)oxy)-2-azaspiro[3.3]heptane-2-carbonyl)hexahydro-2H-pyrido[4,3-b][1,4]oxazin-3(4H)-one]",36.4 nM
2,"COc1ccc(C(F)(F)F)cc1OC1CC2(C1)CN(C(=O)N1CC[C@@H]3OCC(=O)N[C@@H]3C1)C2 [Example 6, (4aR,8aS)-6-(6-(2-Methoxy-5-(trifluoromethyl)phenoxy)-2-azaspiro[3.3]heptane-2-carbonyl)hexahydro-2H-pyrido[4,3-b][1,4]oxazin-3(4H)-one]",2.8 nM
3,"Cc1ccc(COC2CC3(C2)CN(C(=O)N2CC[C@@H]4OCC(=O)N[C@@H]4C2)C3)cc1C(F)(F)F [Example 26, (4aR,8aS)-6-(6-((4-Methyl-3-(trifluoromethyl)benzyl)oxy)-2-azaspiro[3.3]heptane-2-carbonyl)hexahydro-2H-pyrido[4,3-b][1,4]oxazin-3(4H)-one]",31 nM
4,"O=C1CO[C@H]2CCN(C(=O)N3CC4(C3)CN(S(=O)(=O)c3ccc(F)cc3Cl)C4)C[C@H]2N1 [Example 16, (4aR,8aS)-6-(6-((2-Chloro-4-fluorophenyl)sulfonyl)-2,6-diazaspiro[3.3]heptane-2-carbonyl)hexahydro-2H-pyrido[4,3-b][1,4]oxazin-3(4H)-one]",228 nM
5,"O=C1CO[C@H]2CCN(C(=O)N3CC4(CC(Oc5ccc(OC(F)(F)F)cc5Cl)C4)C3)C[C@H]2N1 [Example 5, (4aR,8aS)-6-(6-(2-Chloro-4-(trifluoromethoxy)phenoxy)-2-azaspiro[3.3]heptane-2-carbonyl)hexahydro-2H-pyrido[4,3-b][1,4]oxazin-3(4H)-one]",0.6 nM
6,"O=C1CO[C@H]2CCN(C(=O)N3CC4(CC(Oc5ccc(OC(F)(F)F)cc5F)C4)C3)C[C@H]2N1 [Example 4, (4aR,8aS)-6-(6-(2-Fluoro-4-(trifluoromethoxy)phenoxy)-2-azaspiro[3.3]heptane-2-carbonyl)hexahydro-2H-pyrido[4,3-b][1,4]oxazin-3(4H)-one]",3 nM
7,"O=C1CO[C@H]2CCN(C(=O)N3CCC4(CCN(Cc5ccc(C(F)(F)F)cc5F)C4)C3)C[C@H]2N1 (stereo partly drawn) [Example 14, (4aR,8aS)-6-(7-(2-Fluoro-4-(trifluoromethyl)benzyl)-2,7-diazaspiro[4.4]nonane-2-carbonyl)hexahydro-2H-pyrido[4,3-b][1,4]oxazin-3(4H)-one]",268 nM
8,"O=C1CO[C@H]2CCN(C(=O)N3CC4(CC(Oc5ccc(C(F)(F)F)cc5)C4)C3)C[C@H]2N1 [Example 2, (4aR,8aS)-6-(6-(4-(Trifluoromethyl)phenoxy)-2-azaspiro[3.3]heptane-2-carbonyl)hexahydro-2H-pyrido[4,3-b][1,4]oxazin-3(4H)-one]",5 nM
9,"O=C1CO[C@H]2CCN(C(=O)N3CC4(CC(COc5ccc(C(F)(F)F)cc5F)C4)C3)C[C@H]2N1 [Example 43, (4aR,8aS)-6-[6-[[2-Fluoro-4-(trifluoromethyl)phenoxy]methyl]-2-azaspiro[3.3]heptane-2-carbonyl]-4,4a,5,7,8,8a-hexahydropyrido[4,3-b][1,4]oxazin-3-one]",1 nM
10,"O=C1CO[C@H]2CCN(C(=O)N3CC4(CC(Oc5ccc(C(F)(F)F)c(C(F)(F)F)n5)C4)C3)C[C@H]2N1 [Example 23, (4aR,8aS)-6-(6-((5,6-Bis(trifluoromethyl)pyridin-2-yl)oxy)-2-azaspiro[3.3]heptane-2-carbonyl)hexahydro-2H-pyrido[4,3-b][1,4]oxazin-3(4H)-one]",4.8 nM
11,"O=C1CO[C@H]2CCN(C(=O)N3CC4(C3)CN(S(=O)(=O)c3ccc(C(F)(F)F)cc3F)C4)C[C@H]2N1 [Example 17, (4aR,8aS)-6-(6-((2-Fluoro-4-(trifluoromethyl)phenyl)sulfonyl)-2,6-diazaspiro[3.3]heptane-2-carbonyl)hexahydro-2H-pyrido[4,3-b][1,4]oxazin-3(4H)-one]",768 nM
12,"O=C1CO[C@H]2CCN(C(=O)N3CC4(CC(Oc5ccc(Cl)cc5C(F)(F)F)C4)C3)C[C@H]2N1 [Example 7, (4aR,8aS)-6-(6-(4-Chloro-2-(trifluoromethyl)phenoxy)-2-azaspiro[3.3]heptane-2-carbonyl)hexahydro-2H-pyrido[4,3-b][1,4]oxazin-3(4H)-one]",8.5 nM
13,"O=C1CO[C@H]2CCN(C(=O)N3CC4(CN(Cc5ccc(C(F)(F)F)cc5F)C4)C3)C[C@H]2N1 [Example 12, (4aR,8aS)-6-(6-(2-Fluoro-4-(trifluoromethyl)benzyl)-2,6-diazaspiro[3.3]heptane-2-carbonyl)hexahydro-2H-pyrido[4,3-b][1,4]oxazin-3(4H)-one]",15.7 nM

# Further lines, results first:
row,IC50,SMILES
1,466 nM,"O=C1CO[C@H]2CCN(C(=O)N3CC4(CC(Oc5ccc(F)cc5Cl)C4)C3)C[C@H]2N1 (stereo in doubt) [Example 41, (4aR,8aS)-6-(6-(2-Chloro-4-fluorophenoxy)-2-azaspiro[3.3]heptane-2-carbonyl)hexahydro-2H-pyrido[4,3-b][1,4]oxazin-3(4H)-one]"
2,51.3 nM,"O=C1CO[C@H]2CCN(C(=O)N3CCC4(CC3)CC(NS(=O)(=O)c3ccc(F)cc3Cl)CO4)C[C@H]2N1 (stereo in doubt) [Example 31, 2-Chloro-4-fluoro-N-((S)-8-((4aR,8aS)-3-oxooctahydro-2H-pyrido[4,3-b][1,4]oxazine-6-carbonyl)-1-oxa-8-azaspiro[4.5]decan-3-yl)benzenesulfonamide]"
3,821 nM,"O=C1CO[C@H]2CCN(C(=O)N3CCC4(CC3)C[C@H](NS(=O)(=O)c3ccccc3)CO4)C[C@H]2N1 (mixture of isomers) [Example 19, rac-(4aR,8aS)-N-((S)-8-(3-oxooctahydro-2H-pyrido[4,3-b][1,4]oxazine-6-carbonyl)-1-oxa-8-azaspiro[4.5]decan-3-yl)benzenesulfonamide]"
4,20.9 nM,"CN([C@H]1COC2(CCN(C(=O)N3CC[C@@H]4OCC(=O)N[C@@H]4C3)CC2)C1)S(=O)(=O)c1ccc(F)cc1Cl [Example 24, 2-Chloro-4-fluoro-N-methyl-N-((R)-8-((4aR,8aS)-3-oxooctahydro-2H-pyrido[4,3-b][1,4]oxazine-6-carbonyl)-1-oxa-8-azaspiro[4.5]decan-3-yl)benzenesulfonamide]"
5,182 nM,"O=C1CO[C@H]2CCN(C(=O)N3CCC4(CC3)CC(NCc3ccc(F)cc3Cl)CO4)C[C@H]2N1 (single isomer, unassigned) [Example 35]"
6,279 nM,"O=C1CO[C@H]2CCN(C(=O)N3CCC4(CC3)CC(NCc3ccc(F)cc3Cl)CO4)C[C@H]2N1 (single isomer, unassigned) [Example 36]"
7,133 nM,"CN(Cc1ccc(F)cc1Cl)C1COC2(CCN(C(=O)N3CC[C@@H]4OCC(=O)N[C@@H]4C3)CC2)C1 (single isomer, unassigned) [Example 34]"
8,4.5 nM,"O=C1CO[C@H]2CCN(C(=O)N3CC4(CC(Oc5ccc(F)cc5Cl)C4)C3)C[C@H]2N1 [Example 1, (4aR,8aS)-6-(6-(2-Chloro-4-fluorophenoxy)-2-azaspiro[3.3]heptane-2-carbonyl)hexahydro-2H-pyrido[4,3-b][1,4]oxazin-3(4H)-one]"
9,19.8 nM,"O=C1CO[C@H]2CCN(C(=O)N3CC4(CN(Cc5ccc(F)cc5Cl)C4)C3)C[C@H]2N1 [Example 11, (4aR,8aS)-6-(6-(2-Chloro-4-fluorobenzyl)-2,6-diazaspiro[3.3]heptane-2-carbonyl)hexahydro-2H-pyrido[4,3-b][1,4]oxazin-3(4H)-one]"
10,11.3 nM,"O=C1CO[C@H]2CCN(C(=O)N3CCC4(CC3)CC(Oc3ccc(F)cc3F)C4)C[C@H]2N1 [Example 40, (4aR,8aS)-6-[2-(2,4-Difluorophenoxy)-7-azaspiro[3.5]nonane-7-carbonyl]-4,4a,5,7,8,8a-hexahydropyrido[4,3-b][1,4]oxazin-3-one]"
11,316 nM,"O=C1CO[C@H]2CCN(C(=O)N3CCC4(CC3)C[C@@H](NS(=O)(=O)c3ccccc3)CO4)C[C@H]2N1 (mixture of isomers) [Example 18, rac-(4aR,8aS)—N—((R)-8-(3-oxooctahydro-2H-pyrido[4,3-b][1,4]oxazine-6-carbonyl)-1-oxa-8-azaspiro[4.5]decan-3-yl)benzenesulfonamide]"
